Experimental findings from ChEMBL document CHEMBL1149390, “Potent CYP19 (aromatase) 1-[(benzofuran-2-yl)(phenylmethyl)pyridine, -imidazole, and -triazole inhibitors: synthesis and biological evaluation” (J Med Chem, 2006) are described below.

Calls of active or inactive are those of the source. The calls are words filed in the database; no cut-off is given here.

Assay [1] concerns Hepatocyte. Kind of assay: cells. The following applies: Rattus norvegicus, 24 h, read-out: LC50 (the source's name). It counts as functional.
In assay [2] the test system is Hepatocyte. The following applies: Rattus norvegicus.

Turning to `COc1ccc(C(c2cc3ccc(OC)cc3o2)n2ccnc2)cc1` (stereo not drawn), the CC50 with Hepatocyte [1] turned out to be 50 µM. Moreover, the LC50 entry with Hepatocyte [2] was “inactive”.

`COc1ccc2cc(C(c3ccc(F)cc3)n3cncn3)oc2c1` (stereo not drawn): the CC50 in the assay on Hepatocyte [1] turned out to be 100 µM. For the same compound, the LC50 result with Hepatocyte [2] is “inactive”.

Turning to `COc1ccc2cc(C(c3ccc(Cl)cc3)n3cncn3)oc2c1` (stereo not drawn), the CC50 with Hepatocyte [1] amounted to 50 µM. Also, the LC50 entry with Hepatocyte [2] was “inactive”.

For `COc1ccc2cc(C(O)(c3ccc(F)cc3)c3cccnc3)oc2c1` (stereo not drawn), the CC50 with Hepatocyte [1] was greater than 100 µM. Also, the LC50 entry in the assay on Hepatocyte [2] is “inactive”.

For `CC(C)(C#N)c1cc(Cn2cncn2)cc(C(C)(C)C#N)c1` [ANASTROZOLE], the CC50 in the assay on Hepatocyte [1] was greater than 200 µM.

Regarding `COc1ccc(C(O)(c2cccnc2)c2cc3ccc(OC)cc3o2)cc1` (stereo not drawn), the CC50 in the assay on Hepatocyte [1] was 100 µM. Besides, the LC50 entry in the assay with Hepatocyte [2] was “inactive”.

For `COc1ccc(C(c2cc3ccc(OC)cc3o2)n2cncn2)cc1` (stereo not drawn), the CC50 in the assay with Hepatocyte [1] was found to be 90 µM. In addition, the LC50 result in the assay on Hepatocyte [2] was “inactive”.
